Patent US8148391B2 (Cephalon, Inc., priority 2006, dated 2012)
Where two headings read alike, the source gives them in different places.

Legend:
[1] = target: T1, baculovirus-expressed ALK (Homo sapiens, UniProt Q9UM73); experiment: ALK Kinase Assay (ELISA-type, time-resolved fluorescence); format: biochemical
T1 construct: host or cells: baculovirus expression system
How it was run: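 Plates coated with phospholipase C-γ substrate (10 μg/mL in TBS); reaction started with 30 ng/ml ALK and run 15 min at 37° C. Phosphorylated substrate detected with Eu-N1-labeled PT66 antibody. IC50 from sigmoidal variable-slope fit of percent inhibition vs log concentration.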

[2] = target: T2, c-Met (cytoplasmic domain) (Homo sapiens, UniProt P08581); experiment: c-Met Kinase Assay (same methods as for ALK, with modifications); format: biochemical
T2 construct: 10 ng/mL c-Met (cytoplasmic domain, Invitrogen Corporation #PV3143); purchased Invitrogen Corporation PV3143
How it was run: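 Europium-labeled PT66 antibody (Eu-N1) detects substrate phosphorylation on wells coated with phospholipase C-γ at 10 μg/mL. The kinase, the cytoplasmic domain of c-Met at 10 ng/mL, starts the reaction, which proceeds 15 minutes at 37° C.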

[3] = 1 μM ATP (Km level), read-out: ALK Activity (ALK Kinase Inhibition, IC50)
[4] = 1 μM ATP (Km level), read-out: cMet Activity (c-Met Kinase Inhibition, IC50)
[5] = ALK kinase inhibition, 1 μM ATP (Km level), read-out: ALK Activity
[6] = c-Met kinase inhibition, 1 μM ATP (Km level), read-out: cMet Activity
[7] = 1 μM ATP (Km level), 30 ng/ml ALK, 37° C., 15 minutes, read-out: ALK Activity (ALK kinase inhibition, IC50 class)
[8] = 1 μM ATP (Km level), 10 ng/mL c-Met, read-out: cMet Activity (c-Met kinase inhibition, IC50 class)
[9] = ALK kinase inhibition, 1 μM ATP, read-out: ALK Activity
[10] = c-Met kinase inhibition, 1 μM ATP, read-out: cMet Activity

T1 sequence (Q9UM73 19-1620): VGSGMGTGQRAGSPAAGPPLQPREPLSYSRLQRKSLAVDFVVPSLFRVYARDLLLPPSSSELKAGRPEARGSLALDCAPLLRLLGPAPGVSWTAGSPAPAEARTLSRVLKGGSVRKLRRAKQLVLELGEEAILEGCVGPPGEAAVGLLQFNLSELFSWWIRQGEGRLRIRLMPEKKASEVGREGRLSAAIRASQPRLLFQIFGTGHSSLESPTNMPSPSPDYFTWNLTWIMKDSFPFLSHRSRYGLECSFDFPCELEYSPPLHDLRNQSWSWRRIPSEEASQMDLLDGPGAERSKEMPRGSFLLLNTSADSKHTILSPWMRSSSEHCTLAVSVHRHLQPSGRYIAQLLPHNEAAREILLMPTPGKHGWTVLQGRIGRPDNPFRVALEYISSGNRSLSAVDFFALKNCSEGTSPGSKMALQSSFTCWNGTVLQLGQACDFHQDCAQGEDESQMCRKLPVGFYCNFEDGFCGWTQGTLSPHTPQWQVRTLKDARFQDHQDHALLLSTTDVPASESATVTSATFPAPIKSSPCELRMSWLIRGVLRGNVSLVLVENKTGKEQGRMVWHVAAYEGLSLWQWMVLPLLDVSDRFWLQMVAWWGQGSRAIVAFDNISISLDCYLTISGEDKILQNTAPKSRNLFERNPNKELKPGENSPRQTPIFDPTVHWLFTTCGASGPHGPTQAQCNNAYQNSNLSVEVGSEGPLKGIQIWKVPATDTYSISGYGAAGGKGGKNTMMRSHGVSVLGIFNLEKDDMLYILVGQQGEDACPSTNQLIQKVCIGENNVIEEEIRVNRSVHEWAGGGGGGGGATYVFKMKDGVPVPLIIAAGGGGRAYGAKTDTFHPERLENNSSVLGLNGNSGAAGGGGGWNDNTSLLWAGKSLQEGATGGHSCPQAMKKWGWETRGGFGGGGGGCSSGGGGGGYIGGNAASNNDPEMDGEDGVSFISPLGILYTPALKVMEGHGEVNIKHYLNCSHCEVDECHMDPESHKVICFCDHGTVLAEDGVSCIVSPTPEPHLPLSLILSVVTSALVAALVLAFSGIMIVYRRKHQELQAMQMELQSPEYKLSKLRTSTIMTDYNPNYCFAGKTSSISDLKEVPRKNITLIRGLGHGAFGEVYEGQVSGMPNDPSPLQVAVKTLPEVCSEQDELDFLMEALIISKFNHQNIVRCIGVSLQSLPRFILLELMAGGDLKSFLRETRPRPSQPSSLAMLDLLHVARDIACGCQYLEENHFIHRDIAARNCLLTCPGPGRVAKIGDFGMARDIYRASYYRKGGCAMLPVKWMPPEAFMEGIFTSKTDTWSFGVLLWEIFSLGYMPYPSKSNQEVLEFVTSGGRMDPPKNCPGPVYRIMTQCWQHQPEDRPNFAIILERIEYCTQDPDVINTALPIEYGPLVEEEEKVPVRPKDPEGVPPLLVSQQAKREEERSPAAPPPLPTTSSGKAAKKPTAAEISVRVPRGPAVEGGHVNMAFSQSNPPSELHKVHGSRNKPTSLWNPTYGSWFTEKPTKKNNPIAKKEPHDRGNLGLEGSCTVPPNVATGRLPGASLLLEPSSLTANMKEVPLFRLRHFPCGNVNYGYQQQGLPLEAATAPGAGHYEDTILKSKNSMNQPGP
T2 sequence (P08581 956-1390 limits assumed): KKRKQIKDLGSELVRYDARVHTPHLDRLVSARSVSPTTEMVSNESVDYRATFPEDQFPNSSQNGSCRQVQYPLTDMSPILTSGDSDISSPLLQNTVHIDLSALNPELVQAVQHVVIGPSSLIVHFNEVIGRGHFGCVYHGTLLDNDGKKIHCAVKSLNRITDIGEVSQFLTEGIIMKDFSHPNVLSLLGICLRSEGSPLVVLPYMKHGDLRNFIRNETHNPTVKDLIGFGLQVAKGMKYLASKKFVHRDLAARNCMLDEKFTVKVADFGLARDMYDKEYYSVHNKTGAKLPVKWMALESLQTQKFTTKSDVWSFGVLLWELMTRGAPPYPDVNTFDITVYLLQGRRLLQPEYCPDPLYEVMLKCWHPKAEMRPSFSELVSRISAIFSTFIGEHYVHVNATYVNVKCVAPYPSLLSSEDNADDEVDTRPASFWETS

Row | Compound | IC50 [1, 3] [nM] | IC50 [2, 4] [nM] | IC50 [1, 5] [nM] | IC50 [2, 6] [nM] | further results
1 | CCN1CCc2c(Nc3ncc(Cl)c(Nc4ccccc4C(=O)NC)n3)ccc(OC)c2CC1 [Example 154, 2-[5-Chloro-2-(3-ethyl-9-methoxy-2,3,4,5-tetrahydro-1H-benzo[d]azepin-6-ylamino)-pyrimidin-4-ylamino]-N-methyl-benzamide] |  |  | 100 to 1000 | > 10000 | 
2 | COc1cc2c(cc1Nc1ncc(Cl)c(Nc3ccccc3S(=O)(=O)N3CCC(O)C3)n1)CCN(CC(=O)N(C)C)CC2 (centres unmarked) [Example 1188, 2-(7-{5-Chloro-4-[2-(3-hydroxy-pyrrolidine-1-sulfonyl)-phenylamino]-pyrimidin-2-ylamino}-8-methoxy-1,2,4,5-tetrahydro-benzo[d]azepin-3-yl)-N,N-dimethyl-acetamide] |  |  |  |  | IC50 [1, 7]: < 100 nM; IC50 [2, 8]: 1000 to 10000 nM
3 | COCCN1CCc2ccc(Nc3ncc(Cl)c(NC4C5CCC(C5)C4C(N)=O)n3)cc2CC1 (stereo not drawn) [Example 177, (2-exo,3-exo)-3-{5-Chloro-2-[3-(2-methoxy-ethyl)-2,3,4,5-tetrahydro-1H-benzo[d]azepin-7-ylamino]-pyrimidin-4-ylamino}-bicyclo[2.2.1]heptane-2-carboxylic acid amide] |  |  | < 100 | 100 to 1000 | 
4 | COc1cc2c(cc1Nc1ncc(F)c(Nc3ccc(N4CCOCC4)cc3OC)n1)CCN(CC(=O)OC(C)C)CC2 [Example 811, {7-[5-Fluoro-4-(2-methoxy-4-morpholin-4-yl-phenylamino)-pyrimidin-2-ylamino]-8-methoxy-1,2,4,5-tetrahydro-benzo[d]azepin-3-yl}-acetic acid isopropyl ester] | 100 to 1000 | > 10000 |  |  | 
5 | CCN1CCN(CC)c2cc(Nc3ncc(Cl)c(Nc4ccccc4NS(C)(=O)=O)n3)c(Cl)cc2C1 [Example 431, N-{2-[5-Chloro-2-(7-chloro-1,4-diethyl-2,3,4,5-tetrahydro-1H-benzo[e][1,4]diazepin-8-ylamino)-pyrimidin-4-ylamino]-phenyl}-methanesulfonamide] |  |  | < 100 | 1000 to 10000 | 
6 | 5-Chloro-N*2*,N*4*-bis-(3-ethyl-2,3,4,5-tetrahydro-1H-benzo[d]azepin-7-yl)-pyridine-2,4-diamine [Example 199] |  |  | < 100 | 1000 to 10000 | 
7 | CNC(=O)c1cc(Br)cc(F)c1Nc1nc(Nc2ccc3c(c2)NC(=O)CCC3)ncc1Cl [Example 1414, 5-Bromo-2-[5-chloro-2-(2-oxo-2,3,4,5-tetrahydro-1H-benzo[b]azepin-8-ylamino)-pyrimidin-4-ylamino]-3-fluoro-N-methyl-benzamide] |  |  |  |  | IC50 [1, 7]: 100 to 1000 nM; IC50 [2, 8]: < 100 nM
8 | CCN1C(=O)CCCc2c1ccc(Nc1ncc(Cl)c(Nc3ccc(N(C)C)cc3OC)n1)c2OC [Example 1339, 7-[5-Chloro-4-(4-dimethylamino-2-methoxy-phenylamino)-pyrimidin-2-ylamino]-1-ethyl-6-methoxy-1,3,4,5-tetrahydro-benzo[b]azepin-2-one] |  |  |  |  | IC50 [1, 7]: 100 to 1000 nM; IC50 [2, 8]: > 10000 nM
9 | CCN1CCc2ccc(Nc3ncc(Cl)c(N[C@H]4CCCC[C@@H]4C(N)=O)n3)cc2CC1 [Example 1502, (1S,2S)-2-[5-Chloro-2-(3-ethyl-2,3,4,5-tetrahydro-1H-enzo[d]azepin-7-ylamino)-pyrimidin-4-ylamino]-cyclohexanecarboxylic acid amide] |  |  |  |  | IC50 [1, 9]: 100 to 1000 nM; IC50 [2, 10]: > 10000 nM
10 | COc1c(Nc2ncc(Cl)c(N[C@@H]3CCCC[C@H]3NS(C)(=O)=O)n2)ccc2c1CCC(NCCO)CC2 (single isomer, unassigned) [Example 699] | < 100 | > 10000 |  |  | 
11 | COc1cc2c(cc1Nc1ncc(Cl)c(Nc3ccccc3S(=O)(=O)N3CC[C@H](C)C3)n1)CCN(CCO)CC2 [Example 855, 2-(7-{5-Chloro-4-[2-((S)-3-methyl-pyrrolidine-1-sulfonyl)-phenylamino]-pyrimidin-2-ylamino}-8-methoxy-1,2,4,5-tetrahydro-benzo[d]azepin-3-yl)-ethanol] | < 100 | 100 to 1000 |  |  | 
12 | COc1cc2c(cc1Nc1ncc(Cl)c(Nc3ccc(N4CCOCC4)cc3OC)n1)CCN(CC(=O)N1CCCC1)CC2 [Example 1155, 2-{7-[5-Chloro-4-(2-methoxy-4-morpholin-4-yl-phenylamino)-pyrimidin-2-ylamino]-8-methoxy-1,2,4,5-tetrahydro-benzo[d]azepin-3-yl}-1-pyrrolidin-1-yl-ethanone] |  |  |  |  | IC50 [1, 7]: < 100 nM; IC50 [2, 8]: > 10000 nM
13 | COc1cc2c(cc1Nc1ncc(Cl)c(Nc3ccccc3S(=O)(=O)N3CC[C@@H](O)C3)n1)CCN(CC(=O)N(C)C)CC2 [Example 1205, 2-(7-{5-Chloro-4-[2-((R)-3-hydroxy-pyrrolidine-1-sulfonyl)-phenylamino]-pyrimidin-2-ylamino}-8-methoxy-1,2,4,5-tetrahydro-benzo[d]azepin-3-yl)-N,N-dimethyl-acetamide] |  |  |  |  | IC50 [1, 7]: < 100 nM; IC50 [2, 8]: 1000 to 10000 nM
14 | CCN1CCc2ccc(Nc3ncc(Cl)c(N[C@H]4CCCC[C@H]4C(=O)NC)n3)cc2CC1 (relative stereo) [Example 200, cis-2-[5-Chloro-2-(3-ethyl-2,3,4,5-tetrahydro-1H-benzo[d]azepin-7-ylamino)-pyrimidin-4-ylamino]-cyclohexanecarboxylic acid methylamide] |  |  | < 100 | 100 to 1000 | 
15 | CCOC(=O)N1C2CCC1c1cc(C(=O)OC)cc(Nc3ncc(Cl)c(Nc4ccccc4C(=O)NC)n3)c1C2 (centres unmarked) [Example 78, 6-[5-Chloro-4-(2-methylcarbamoyl-phenylamino)-pyrimidin-2-ylamino]-12-aza-tricyclo[7.2.1.0*2,7*]dodeca-2(7),3,5-triene-4,12-dicarboxylic acid 12-ethyl ester 4-methyl ester] |  |  | < 100 | 100 to 1000 | 
16 | CN1CCNCc2ccc(Nc3ncc(Cl)c(N[C@@H]4CCCC[C@H]4NS(C)(=O)=O)n3)cc21 [Example 475, N-{(1R,2R)-2-[5-Chloro-2-(1-methyl-2,3,4,5-tetrahydro-1H-benzo[e][1,4]diazepin-8-ylamino)-pyrimidin-4-ylamino]-cyclohexyl}-methanesulfonamide] |  |  | < 100 | 1000 to 10000 | 
17 | CNC(=O)c1ccccc1Nc1nc(Nc2cc3c(cc2OC)CCN(CC(=O)N(C)C)CC3)ncc1Br [Example 376, 2-[5-Bromo-2-(3-dimethylcarbamoylmethyl-8-methoxy-2,3,4,5-tetrahydro-1H-benzo[d]azepin-7-ylamino)-pyrimidin-4-ylamino]-N-methyl-benzamide] |  |  | < 100 | 1000 to 10000 | 
18 | CC(C)[C@@H](Nc1nc(Nc2ccc3c(c2)CCOC(=O)N3C)ncc1Cl)C(N)=O [Example 1763, (R)-2-[5-Chloro-2-(5-methyl-6-oxo-5,6,8,9-tetrahydro-7-oxa-5-aza-benzocyclohepten-2-ylamino)-pyrimidin-4-ylamino]-3-methyl-butyramide] |  |  |  |  | IC50 [1, 9]: 1000 to 10000 nM; IC50 [2, 10]: 1000 to 10000 nM
19 | CNC(=O)c1ccccc1Nc1nc(Nc2ccc3c(c2)COC[C@@H]2CCCN32)ncc1Cl [Example 12, 2-{5-Chloro-2-[(S)-(2,3,3a,4-tetrahydro-1H,6H-5-oxa-10b-aza-benzo[e]azulen-8-yl)amino]-pyrimidin-4-ylamino}-N-methyl-benzamide] |  |  | < 100 | < 100 | 
20 | CCNC(=O)c1cccc(F)c1Nc1nc(Nc2ccc3c(c2)N(CC)C(=O)CCC3(C)C)ncc1Cl [Example 1579, 2-[5-Chloro-2-(1-ethyl-5,5-dimethyl-2-oxo-2,3,4,5-tetrahydro-1H-benzo[b]azepin-8-ylamino)-pyrimidin-4-ylamino]-N-ethyl-3-fluoro-benzamide] |  |  |  |  | IC50 [1, 9]: < 100 nM; IC50 [2, 10]: < 100 nM
21 | CCN1CCc2ccc(Nc3ncc(C(F)(F)F)c(Nc4ccc(N5CCOCC5)cc4OC)n3)cc2CC1 [Example 924, N(2)-(3-Ethyl-2,3,4,5-tetrahydro-1H-benzo[d]azepin-7-yl)-N(4)-(2-methoxy-4-morpholin-4-yl-phenyl)-5-trifluoromethylpyrimidine-2,4-diamine] | < 100 | 100 to 1000 |  |  | 

The next lines start with results.

Row | IC50 [1, 3] [nM] | IC50 [2, 4] [nM] | IC50 [1, 5] [nM] | IC50 [2, 6] [nM] | Compound | further results
22 | < 100 | 100 to 1000 |  |  | CNC(=O)c1cc(OC)ccc1Nc1nc(Nc2ccc3c(c2)C(C)(C)CCC(=O)N3)ncc1Cl [Example 609, 2-[5-Chloro-2-(5,5-dimethyl-2-oxo-2,3,4,5-tetrahydro-1H-benzo[b]azepin-7-ylamino)-pyrimidin-4-ylamino]-5-methoxy-N-methyl-benzamide] | 
23 | < 100 | 1000 to 10000 |  |  | COc1ccc(Nc2nc(Nc3ccc4c(c3)C(C)(C)CCC(=O)N4)ncc2Cl)c(-n2cccn2)c1 [Example 611, 7-[5-Chloro-4-(4-methoxy-2-pyrazol-1-yl-phenylamino)-pyrimidin-2-ylamino]-5,5-dimethyl-1,3,4,5-tetrahydro-benzo[b]azepin-2-one] | 
24 | < 100 | > 10000 |  |  | CC1(C)CCC(=O)Nc2ccc(Nc3ncc(Cl)c(Nc4ccccc4-c4ncccn4)n3)cc21 [Example 976, 7-[5-Chloro-4-(2-pyrimidin-2-yl-phenylamino)-pyrimidin-2-ylamino]-5,5-dimethyl-1,3,4,5-tetrahydro-benzo[b]azepin-2-one] | 
25 | 100 to 1000 | 100 to 1000 |  |  | CN1C(=O)CCCc2cc(Nc3ncc(Cl)c(Nc4cccc5c4ncn5C)n3)ccc21 [Example 1007, 7-[5-Chloro-4-(1-methyl-1H-benzoimidazol-4-ylamino)-pyrimidin-2-ylamino]-1-methyl-1,3,4,5-tetrahydro-benzo[b]azepin-2-one] | 
